In patent US20120129811A1, “TRICYCLIC INHIBITORS OF PRO-MATRIX METALLOPROTEINASE ACTIVATION” (priority 2010, published 2012):
Structures can show the parent of a compound that is named as a salt.

How the values were obtained:
[1] = biological target: T1, proMMP9(67-444;ΔFnII) (SEQ ID NO:5) (Homo sapiens, UniProt P14780, DEL216-390); assay: ThermoFluor binding assay with proMMP9(67-444;ΔFnII)
T1 construct: start methionine (N); made in house; host or cells: E. coli BL21(DE3) RIL
T1 sequence (P14780 with tags, fused parts or gaps DEL216-390): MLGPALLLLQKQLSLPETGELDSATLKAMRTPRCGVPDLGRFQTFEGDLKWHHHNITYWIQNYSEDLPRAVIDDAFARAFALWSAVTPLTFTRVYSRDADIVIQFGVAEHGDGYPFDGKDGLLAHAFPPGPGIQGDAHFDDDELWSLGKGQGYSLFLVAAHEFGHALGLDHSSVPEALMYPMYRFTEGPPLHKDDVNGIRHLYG
Method: (§1) The ThermoFluor® (TF) assay is a 384-well plate-based binding assay that measures thermal stability of proteins (Biomol Screen 2001, 6, 429-40; Biochemistry 2005, 44, 5258-66). The experiments were carried out using instruments available from Johnson & Johnson Pharmaceutical Research & Development, LLC. TF dye used in all experiments was […] (1,8-ANS) (Invitrogen: A-47).
(§2) Compounds were arranged in a pre-dispensed plate (Greiner Bio-one: 781280), wherein compounds were serially diluted in 100% DMSO across 11 columns within a series. Columns 12 and 24 were used as DMSO reference and contained no compound. For multiple compound concentration-response experiments, the compound aliquots (50 nL) were robotically predispensed directly into black 384-well polypropylene PCR microplates (Abgene: TF-0384/k) using a Cartesian Hummingbird liquid handler (DigiLab, Holliston, Mass.). Following compound dispense, protein and dye solutions were added to achieve the final assay volume of 3 μL. The assay solutions were overlayed with 1 μL of silicone oil (Fluka, type DC 200: 85411) to prevent evaporation.
(§3) Assay plates were robotically loaded onto a thermostatically controlled PCR-type thermal block and then heated from 40 to 90° C. at a ramp-rate of 1° C./min for all experiments. Fluorescence was measured by continuous illumination with UV light (Hamamatsu LC6) supplied via fiber optics and filtered through a band-pass filter (380-400 nm; >60D cutoff). Fluorescence emission of the entire 384-well plate was detected by measuring light intensity using a CCD camera (Sensys, Roper Scientific) filtered to detect 500±25 nm, resulting in simultaneous and independent readings of all 384 wells. A single image with 20-sec exposure time was collected at each temperature, and the sum of the pixel intensity in a given area of the assay plate was recorded vs temperature and fit to standard equations to yield the Tm (J Biomol Screen 2001, 6, 429-40).
(§4) Thermodynamic parameters necessary for fitting compound binding for each proMMP were estimated by differential scanning calorimetry (DSC) and from ThermoFluor® data. The heat capacity of unfolding for each protein was estimated from the molecular weight and from ThermoFluor® dosing data.
ThermoFluor® with proMMP9(67-444;ΔFnM (SEQ ID NO:5)
The protein sample preparations had to include a desalting buffer exchange step via a PD-10 gravity column (GE Healthcare). The desalting buffer exchange was performed prior to diluting the protein to the final assay concentration of 3.5 μM proMMP9(67-444;ΔFnII) (SEQ ID NO:5). The concentration of proMMP9(67-444;ΔFnII) (SEQ ID NO:5) was determined spectrophotometrically based on a calculated extinction coefficient of ε280=33900 M^−1 cm^−1, a calculated molecular weight of 22.6 kDa, and calculated pI of 5.20. ThermoFluor® reference conditions were defined as follows: 80 μg/mL (3.5 μM) proMMP9(67-444;ΔFnII) (SEQ ID NO:5), 50 μM 1,8-ANS, pH 7.0 Buffer (50 mM HEPES pH 7.0, 100 mM NaCl, 0.001% Tween-20, 2.5 mM MgCl2, 300 μM CaCl2). The thermodynamic parameters for proMMP9(67-444;ΔFnII) (SEQ ID NO:5) are as follows: Tm (° C.)=63 (+/−0.1), ΔUH(Tm)(cal mol^−1)=105000(+/−5000), ΔUS(Tm) (cal mol^−1 K^−1)=450, ΔUCp (cal mol^−1 K^−1)=2000.

[2] = biological target: T2, proMMP9(20-445;ΔFnII) (SEQ ID NO:6) (Homo sapiens, UniProt P14780, DEL216-390); assay: ThermoFluor binding assay with proMMP9(20-445;ΔFnII)
T2 construct: start methionine (N); made in house; host or cells: E. coli BL21(DE3) RIL
T2 sequence (P14780 with tags, fused parts or gaps DEL216-390): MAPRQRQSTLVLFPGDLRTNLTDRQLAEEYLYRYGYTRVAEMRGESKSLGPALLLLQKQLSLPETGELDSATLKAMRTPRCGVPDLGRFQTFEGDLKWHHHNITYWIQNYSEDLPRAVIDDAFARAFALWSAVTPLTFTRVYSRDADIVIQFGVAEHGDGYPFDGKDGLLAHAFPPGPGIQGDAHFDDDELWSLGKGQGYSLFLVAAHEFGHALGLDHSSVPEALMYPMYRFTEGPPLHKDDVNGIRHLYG
Method: as §1, §2, §3, §4
ThermoFluor® with proMMP9(20-445; ΔFnII (SEQ ID NO:6)
The protein sample preparations included a desalting buffer exchange step via a PD-10 gravity column (GE Healthcare). The desalting buffer exchange was performed prior to diluting the protein to the final assay concentration of 2.8 μM proMMP9(20-445;ΔFnII) (SEQ ID NO:6). The concentration of proMMP9(20-445;ΔFnII) (SEQ ID NO:6) was determined spectrophotometrically based on a calculated extinction coefficient of ε280=39880 M^−1 cm^−1, a calculated molecular weight of 28.2 kDa, and calculated pI of 5.5. ThermoFluor® reference conditions were define as follows: 80 μg/mL (2.8 μM) proMMP9(20-445;ΔFnII) (SEQ ID NO:6), 50 μM 1,8-ANS, pH 7.0 Buffer (50 mM HEPES pH 7.0, 100 mM NaCl, 0.001% Tween-20, 2.5 mM MgCl2, 300 μM CaCl2). The thermodynamic parameters for proMMP9(20-445;ΔFnII) (SEQ ID NO:6) are as follows: Tm (° C.)=72 (+/−0.1), ΔUH(Tm) (cal mol^−1)=160000(+/−5000), ΔUSTm (cal mol^−1 K^−1)=434, ΔUCp (cal mol^−1 K^−1)=2400.

[3] = biological target: T3, full-length proMMP9(1-707) activation by catalytic MMP3 (Homo sapiens, UniProt P14780, R574P); assay: proMMP9/MMP3 P126 Activation Assay; assay type: biochemical
T3 construct: made in house; host or cells: proMMP9: HEK293 (secreted); MMP3: E. coli
Method: proMMP9/MMP3 P126 Activation Assay
The reaction volume was 50 μL. […] Reactivity of residual MMP3 towards P-126 substrate was minimal under these conditions.

T3 sequence (P14780 20-707 R574P): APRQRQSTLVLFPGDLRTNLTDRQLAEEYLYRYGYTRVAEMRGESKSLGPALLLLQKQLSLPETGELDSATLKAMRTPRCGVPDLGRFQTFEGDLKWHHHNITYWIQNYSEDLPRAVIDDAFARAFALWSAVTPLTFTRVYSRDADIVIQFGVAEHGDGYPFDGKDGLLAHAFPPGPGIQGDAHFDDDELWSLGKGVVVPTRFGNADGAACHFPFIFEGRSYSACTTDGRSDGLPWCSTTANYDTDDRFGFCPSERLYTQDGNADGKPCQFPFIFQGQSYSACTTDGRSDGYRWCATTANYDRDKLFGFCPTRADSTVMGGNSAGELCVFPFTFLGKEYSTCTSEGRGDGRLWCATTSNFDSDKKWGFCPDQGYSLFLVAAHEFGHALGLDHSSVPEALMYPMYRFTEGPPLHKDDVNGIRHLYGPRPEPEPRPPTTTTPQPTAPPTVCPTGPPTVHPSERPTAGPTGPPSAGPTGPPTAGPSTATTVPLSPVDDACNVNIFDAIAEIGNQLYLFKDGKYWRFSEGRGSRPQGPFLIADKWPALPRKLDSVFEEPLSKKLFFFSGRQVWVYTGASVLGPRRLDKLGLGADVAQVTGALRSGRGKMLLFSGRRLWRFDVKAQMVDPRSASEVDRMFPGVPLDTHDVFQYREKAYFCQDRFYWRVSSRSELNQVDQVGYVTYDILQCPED

Row | Kd [1] [nM] | Kd [2] [nM] | IC50 [3] [nM] | SMILES
1 | 900 | 970 | 150 | Cn1cnc2c3nc(Nc4cc(S(N)(=O)=O)ccc4OC(F)(F)F)sc3ccc21 [Example 64, 3-(6-Methyl-6H-imidazo[4′,5′:3,4]benzo[2,1-d]thiazol-2-ylamino)-4-trifluoromethoxy-benzenesulfonamide.HCl]
2 | 250 | 77 | 150 | Cn1cnc2c3nc(Nc4cc(C(N)=O)ccc4OC(F)(F)F)sc3ccc21 [Example 65, 3-(6-Methyl-6H-imidazo[4′,5′:3,4]-benzo[2,1-d]thiazol-2-ylamino)-4-trifluoromethoxy-benzamide.HCl]
3 | 77 | 87 | 100 | COc1ccc(C#N)cc1Nc1nc2c(ccc3c2ncn3C)s1 [Example 67, 4-Methoxy-3-(6-methyl-6H-imidazo[4′,5′:3,4]benzo[2,1-d]thiazol-2-ylamino)-benzonitrile.HCl]
4 | 12000 | 7500 | 7500 | COc1ccc(P(=O)(O)O)cc1Nc1nc2c(ccc3c2ncn3C)s1 [Example 68, [4-Methoxy-3-(6-methyl-6H-imidazo[4′,5′:3,4]benzo[2,1-d]thiazol-2-ylamino)-phenyl]-phosphonic acid.HCl]
5 | 220 | 430 | 300 | COc1ccc(Br)cc1Nc1nc2c(ccc3c2ncn3C)s1 [Example 69, (5-Bromo-2-methoxy-phenyl)-(6-methyl-6H-imidazo[4′,5%3,4]benzo[2,1-d]thiazol-2-yl)-amine.HCl]
6 | 120 | 560 | 310 | COc1ccc(-c2cn[nH]c2)cc1Nc1nc2c(ccc3c2ncn3C)s1 [Example 70, [2-Methoxy-5-(1H-pyrazol-4-yl)-phenyl]-(6-methyl-6H-imidazo[4′,5%3,4]benzo[2,1-d]thiazol-2-yl)-amine.HCl]
7 | 1600 | 2000 | 1500 | CCN(CC)S(=O)(=O)c1ccc(OC)c(Nc2nc3c(ccc4c3ncn4C)s2)c1 [Example 71, N,N-Diethyl-4-methoxy-3-(6-methyl-6H-imidazo[4′,5′:3,4]-benzo[2,1-d]thiazol-2-ylamino)-benzenesulfonamide.HCl]
8 | 1600 | 2100 | 460 | COc1ccc(S(=O)(=O)N2CCCC2)cc1Nc1nc2c(ccc3c2ncn3C)s1 [Example 72, [2-Methoxy-5-(pyrrolidine-1-sulfonyl)-phenyl]-(6-methyl-6H-imidazo[4′,5′:3,4]benzo[2,1-d]thiazol-2-yl)-amine.HCl]
9 | 7500 | 13000 | 5800 | Cn1cnc2c(Nc3nc4c(ccc5c4ncn5C)s3)cccc21 [Example 73, (1-Methyl-1H-benzoimidazol-4-yl)-(6-methyl-6H-imidazo[4′,5′:3,4]-benzo[2,1-d]thiazol-2-yl)-amine.HCl]
10 | 3700 | 6000 | 4700 | COc1ncccc1Nc1nc2c(ccc3c2ncn3C)s1 [Example 74, (2-Methoxy-pyridin-3-yl)-(6-methyl-6H-imidazo[4′,5′:3,4]-benzo[2,1-d]thiazol-2-yl)-amine.HCl]
11 | 15000 | > 95000 | ~18000 | Cn1cnc2c3nc(Nc4cccnc4)sc3ccc21 [Example 75, (6-Methyl-6H-imidazo[4′,5′:3,4]-benzo[2,1-d]thiazol-2-yl)-pyridin-3-yl-amine.HCl]
12 | 380 | 530 | 100 | COc1ccc([N+](=O)[O-])cc1Nc1nc2c(ccc3c2ncn3C)s1 [Example 76, (2-Methoxy-5-nitro-phenyl)-(6-methyl-6H-imidazo[4′,5′:3,4]benzo[2,1-d]thiazol-2-yl)-amine.HCl]

Row | SMILES | Kd [1] [nM] | Kd [2] [nM] | IC50 [3] [nM]
13 | CCOP(=O)(OCC)c1ccc(OC)c(Nc2nc3c(ccc4c3ncn4C)s2)c1 [Example 66, [4-Methoxy-3-(6-methyl-6H-imidazo[4′,5′:3,4]benzo[2,1-d]thiazol-2-ylamino)-phenyl]-phosphonic acid diethyl ester.HCl] | 1700 | 5900 | 2300
